Experiment [1] deals with cotyledonary explant. Description: Direct flower bud induction on cotyledon explants on MSB5 medium with growth regulators. It counts as cell-based, soybean. The method, then:
Preferably before germination, the seeds are washed in running tap water with a drop of soap for 15 mins and sterilized with 70% ethyl alcohol for 1 min followed by a 10 minute treatment with 0.1% mercuric chloride and washed three times for 5 min intervals with sterile distilled water. Six seeds are germinated in each petriplate with MSB5 medium After germination on a MSB5 for a period of time, such as 3 days in the dark at 24±2° C., both the cotyledons are split and the radicle and embryo are removed. The isolated cotyledons from the seed are plated on cotyledon-flowering medium (which is another embodiment of the invention and is described in detail below). The cotyledon-flowering medium preferably comprises a substituted phenylurea cytokinin analog, such as TDZ and a cytokinin such as BAP.
If desired, the cotyledon may be transformed at this time with any suitable technique known in the art. Preferably the abaxial side of a cotyledon is placed in contact with a cotyledon-flowering medium. Cultures are incubated at 24±2° C. under a 16/8-hour […] photoperiod provided by cool-white fluorescent lights at a quantum flux density of 30 μmol s^−1m^−2.
Following a passage of time, typically within 3 weeks, flower bud initiation occurs on a cotyledon having been placed on a cotyledon-flowering medium. After about 3 weeks, cotyledons are transferred to MSB5 medium. The flower bud continues to grow on MSB5 medium to develop and produce viable seeds. During this time, cultures are incubated with necessary light-dark photoperiodic conditions to promote growth and to mimic natural growing conditions. Additionally, over time it may be necessary to subculture the explants with fresh MSB5 medium. See example 1 and FIGS, 1a-1d for direct viable-seed producing flower bud initiation on a soybean cotyledon.
Healthy soybean seeds are hand picked and washed with a few drops of soap (Linquinox, Fischer scientific, Pittsburgh, Pa.) for 10 minutes in running tap water. The seeds are then sterilized in 70% ethyl alcohol for 1 min and treated with 0.1% (w/v) mercuric chloride for 10 min. Sterilized seeds are again washed for three times at five minute intervals with sterilized distilled water, and plated six seed on each petri plate containing 20 ml of MSB5 medium. Three-day-old aseptic seedlings are used as the source material for explant preparation. Six isolated cotyledons are plated on each culture plate in such a way that the abaxial side in contact with the medium. MSB5 medium supplemented with different concentrations of TDZ (0.1, 0.5, 1.0, 2.0 and 5.0 mg/L) either alone, or in combination, with BAP (1.0-4.0 mg/L) are tested for flower induction. The media is augmented with 3% (w/v) sucrose and solidified with 0.56% agar (Phytotech Labs). The pH of the medium is adjusted to 5.8 with 0.1M NaOH or 0.1M HCl before autoclaving at 1.4 kg cm^−2 for 20 min at 121° C. The cultures are incubated in light-dark (16-8 hrs) photoperiodic conditions of cool-white-fluorescent light providing a quantum flux density of […] at 25±2° C. Explants with or without multiple flower buds are subcultured regularly at 20 days interval to fresh medium. Within 15 days of culture initiation, the bulging of cotyledons and induction of deep greenish unorganized structures from the proximal end is noticed.

Experiment [2] has as its system cotyledon. Description: Shoot, fertile flower and viable seed production from in vitro developed shoots from cotyledon. In kind it is cell-based, soybean. The note with it: BAP 3.0 mg/L without TDZ. As to the method:
In this method, the isolated cotyledons from the germinated seed are plated on a cotyledon-shoot-flowering medium (which is another embodiment of the invention and is described below). A cotyledon-shoot flowering medium preferably comprises a cytokinin or mixtures thereof, such as BAP or combinations of cytokinins and a substituted phenylurea cytokinin analog such as TDZ or mixtures thereof. If desired, the cotyledon may be transformed at this time with any suitable technique known in the art. Preferably the abaxial side of the cotyledon is placed in contact with a cotyledon-shoot-flowering medium. Cultures are incubated at 24×2° C. under a 16/8-hour dark photoperiod provided by cool-white fluorescent lights at a quantum flux density of 30 μmol s^−1m^−2. Following a passage of time, typically, within four to six weeks, shoot initiation occurs on a cotyledon having been placed on a cotyledon-shoot-flowering medium. The shoot continues to grow and develop a flower bud within two to four weeks after shoot initiation. The explant is maintained on a cotyledon-shoot flowering medium for about 15 days and then transferred to MSB5 medium. Healthy soybean seeds are hand picked and washed with a few drops of soap (Linquinox, Fischer scientific, Pittsburgh, Pa.) for 10 minutes in running tap water. […]

Experiment [3] concerns Leaf segments from a petunia. Description: In vitro flowering from leaf explant of petunia. In kind it is cell-based. The note with it: MS basal medium, TDZ 0.1, 0.5, 1.0, 2.0 and 5.0 mg/L alone; 4 weeks. The method, then: Leaf segments from a petunia were sterilized using the sterilization procedures described above and placed on MS basal medium supplemented with different concentrations of TDZ (0.1, 0.5, 1.0, 2.0 and 5.0 mg/L) either alone or in combination with BAP (3.0 mg/L) or on a MS basal medium with no hormones. […] A large number of flowers were induced on MS basal medium. FIG. 7 is a photograph showing in vitro flowering in a petunia.

As to `c1ccc(CNc2ncnc3nc[nH]c23)cc1` [BAP, 6-benzylamino purine], in experiment [1] (3.0 mg/1 BAP), the “developmental outcome produced by cotyledon explants” value is “only shoots”. In experiment [2], the “frequency of shoots, fertile flowers and viable seeds” value is “high frequency of shoots with low frequency of fertile flowers and viable seeds”.

As to `O=C(Nc1ccccc1)Nc1cnns1` [TDZ, 1-phenyl-3-(1,2,3-thiadiazol-5-yl)urea], the “flower induction and shoot induction” value in experiment [1] (TDZ 5.0 mg/L) was “neither flower induction nor shoot induction was noticed”. For the same molecule, the “flower production on cotyledonary explants” value in experiment [1] (TDZ 1.0-2.0 mg/L without BAP) is reported as “produces flowers on cotyledonary explants”. In experiment [1] (TDZ below 1.0 mg/L), the “number and frequency of flowers induced” value is “fewer number of flowers and less frequently”. Further, the “appearance of induced flowers” value in experiment [1] (medium containing only 1.0 to 2.0 mg/L TDZ) was “short, vitrified and abnormal”. Also, the flower bud induction entry in experiment [3] is given as “Multiple flower buds were induced”.

For the origin of these results see patent US7547548B2, “Method for producing direct in vitro flowering and viable seed from cotyledon, radicle, and leaf explants, and plants produced therefrom” (University of Toledo, priority 2004, dated 2009).
